Results: PubChem BioAssay (NCI)
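In this assay, cells in 96-well plates receive the compound at five concentrations for 48 hours. Endpoints are linearly interpolated between the surrounding concentrations. At the TGI there is no net growth.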

Columns and labels:
Assay in all cases: DTP human tumour cell line panel, 48 h
A549 NSCLC = tested on: A549 NSCLC
ACHN renal = tested on: ACHN renal
CAKI-1 renal = tested on: CAKI-1 renal
HCT-116 colon = tested on: HCT-116 colon
HCT-15 colon = tested on: HCT-15 colon
HT29 colon = tested on: HT29 colon
MDA-MB-231 breast = tested on: MDA-MB-231 breast
MDA-MB-435 = tested on: MDA-MB-435
MDA-N = tested on: MDA-N
PC-3 prostate = tested on: PC-3 prostate
RXF 393 renal = tested on: RXF 393 renal
SF-295 CNS = tested on: SF-295 CNS
SF-539 CNS = tested on: SF-539 CNS
SK-MEL-2 melanoma = tested on: SK-MEL-2 melanoma
SK-MEL-28 melanoma = tested on: SK-MEL-28 melanoma
SK-OV-3 ovarian = tested on: SK-OV-3 ovarian
SN12C renal = tested on: SN12C renal
SNB-19 CNS = tested on: SNB-19 CNS
UO-31 renal = tested on: UO-31 renal
OVCAR-8 ovarian = tested on: OVCAR-8 ovarian

Row | SMILES | TGI (A549 NSCLC) [µM] | TGI (ACHN renal) [µM] | TGI (CAKI-1 renal) [µM] | TGI (HCT-116 colon) [µM] | TGI (HCT-15 colon) [µM] | TGI (HT29 colon) [µM] | TGI (MDA-MB-231 breast) [µM] | TGI (MDA-MB-435) [µM] | TGI (MDA-N) [µM] | TGI (PC-3 prostate) [µM] | TGI (RXF 393 renal) [µM] | TGI (SF-295 CNS) [µM] | TGI (SF-539 CNS) [µM] | TGI (SK-MEL-2 melanoma) [µM] | TGI (SK-MEL-28 melanoma) [µM] | TGI (SK-OV-3 ovarian) [µM] | TGI (SN12C renal) [µM] | TGI (SNB-19 CNS) [µM] | TGI (UO-31 renal) [µM] | TGI (OVCAR-8 ovarian) [µM]
1 | C=C1CCC2[C@](C)(CCC[C@]2(C)C(=O)O)[C@@H]1CCc1ccoc1 (some centres not stated) | > 100 | > 100 | > 100 | 88.4 | > 100 | 55.7 | > 100 | > 100 | > 100 | > 100 | > 100 | > 100 | 99.4 | 85 | > 100 | > 100 | > 100 | > 100 | > 100 | 
2 | C[C@H](CCC(=O)NCCS(=O)(=O)O)[C@H]1CC[C@H]2[C@@H]3[C@H](O)C[C@@H]4C[C@H](O)CC[C@]4(C)[C@H]3CC[C@]12C | > 100 | > 100 | > 100 | > 100 | > 100 | > 100 | > 100 | > 100 | > 100 | > 100 | > 100 | > 100 | > 100 | > 100 | > 100 | > 100 | > 100 | > 100 | > 100 | > 100
3 | COc1ccc2c(C)cc(N/N=C/c3ccc(C)s3)nc2c1 | 39.7 | > 52.4 | 34.4 | > 46.4 | 41.3 | 16.7 | 29.1 | > 52.4 | > 62.7 | 37.1 | 33.8 | 26.8 | 36.5 | 37.9 | > 100 | 43.6 | 37.3 | > 67.2 | 35.4 | 51.5
4 | Nc1nc(Cl)c(N)c(NCC2(CO)CCC(CCc3ccccc3)C2)n1 (configuration not stated) | > 100 | > 68.9 | 47.2 | 31.3 | 41.8 | 29.2 | 34.4 | 27 | 33.7 | 49.7 | 37.2 | 29.8 | 33.7 | 31.7 | 31.1 | 63.8 | 63.2 | > 94 | 41.7 | 38.1
5 | CSC1(C(=O)O)C2CCC3C2CCC31 (configuration not stated) | > 100 | > 100 | > 100 | > 100 | > 100 | > 100 | > 100 | > 100 | > 100 | > 100 | > 100 | > 100 | > 100 | > 100 | > 100 | > 100 | > 100 | > 100 | > 100 | > 100
6 | COc1ccc(CCc2ccc3c(c2)OCO3)cc1 | > 100 | > 100 | > 100 | > 100 | > 100 | > 100 | > 100 | 42.6 | > 100 | > 100 | 86 | > 100 | > 100 | 92.4 | > 100 | > 100 | > 100 | > 100 |  | > 100
7 | C[C@@H](NC(=O)Cn1c(Cl)nc2ccccc21)c1ccccc1 | > 100 | > 100 | > 100 | > 100 | > 100 | > 100 | > 100 | > 100 | > 100 | > 100 | > 100 | > 100 | > 100 | > 100 | > 100 | > 100 |  | > 100 | > 100 | > 100
8 | Cc1cc(N(CCC#N)CCC#N)ccc1/C=C(\NC(=O)/C=C/c1ccccc1)C(=O)Nc1ccc(Cl)cc1 | > 100 | > 100 | 98 | > 100 | > 100 | > 100 | > 100 | > 100 | > 100 | > 100 | > 100 | > 100 | > 100 | > 100 | > 100 | > 100 | > 100 | > 100 | > 100 | > 100
9 | CC(=O)c1c2c(cc3c1CC1(Cc4cc5c(cc4C1)C(=O)CCC5)C3)CCCC2 (configuration not stated) | > 88.2 | 17.2 | > 100 | > 47.1 | 19.3 | > 32.7 | 55.1 | 11.4 | 12.9 | > 83.5 | > 25.7 | > 45.5 | 13.6 | 7.76 | 69.8 | > 100 | > 100 | 80.9 | > 90.6 | > 80.6
10 | Cc1cccc(Nc2nc3ccccc3nc2NS(=O)(=O)c2ccccc2)c1 | > 100 | > 100 | > 100 | > 100 | 65.9 | > 100 | > 100 | > 100 | > 100 | 72 | > 100 | > 100 | > 100 | 68.6 | > 100 | > 100 | > 100 | 91.5 | 59 | > 100
11 | COc1cccc(/C=C2\SC(=S)N(/C=C3\C(=O)Oc4ccccc4C3=O)C2=O)c1O | > 100 | > 100 | > 100 | > 100 | > 100 | > 100 | > 100 | 75.6 | > 100 | > 100 | > 100 | > 100 | 83.2 | > 100 | > 100 | > 100 | > 100 | > 100 | 48.2 | > 100
12 | COc1ccc2nc3n(c2c1)C(c1c(F)cccc1F)SC3 (configuration not stated) | > 100 | > 100 | > 100 | 75.2 | > 100 | > 100 | > 100 | > 100 | > 100 | > 100 | > 100 | > 100 | > 100 | 74.9 | > 100 | > 100 | > 100 | 93.3 | > 100 | > 100
